# In patent US20070259935A1, “CRYSTALLINE FORMS OF LETROZOLE AND PROCESSES FOR MAKING THEM” (priority 2006, published 2007):
# Entries after “also recorded” stand apart in the source; their conditions may differ.
# Key:
# [1] = cited from earlier work
# [2] = Crystal form conversion on stirring in solvent; assay type: physicochemical
# [3] = Relative stability of the crystalline forms (cooling rate observations in toluene); assay type: physicochemical; details: concluded from slow versus faster cooling in toluene and the conversion observations
# Description: Slow cooling a solution of letrozole in toluene gave mainly Form I, whereas faster cooling a solution in toluene gave Form II.
# Indeed, due to the relative instability of Form II, the use of Form II or a mixture of Forms I and II could be liable to conversion during storage to form some or more Form I, respectively. Such a variation in crystalline form is generally undesirable in pharmaceuticals as the different forms can have different properties, e.g. bio-absorption, solubility, degradation, etc. Thus, while the use of either crystalline form in a pharmaceutical composition is contemplated, making the composition from a crystalline letrozole that has an XRPD substantially corresponding to FIG. 1 is preferred.
# [4] = Crystal form conversion during annealing; assay type: physicochemical; details: annealing above 140° C.
Structure (SMILES),solubility in dichloromethane ([1]; dichloromethane),solubility in ethanol ([1]; ethanol),solubility in water ([1]; water),conversion of crystalline form when stirred in ethanol ([2]; stirred in ethanol at room temperature),kinetic versus thermodynamic form / relative stability [3],conversion of crystalline form during annealing [4],conversion of crystalline form when stirred in a solvent for 2 weeks ([2]; stirred in a solvent for 2 weeks),conversion of crystalline form when stirred in various solvents ([2]; stirred in various solvents)
"N#Cc1ccc(C(c2ccc(C#N)cc2)n2cncn2)cc1 [Letrozole, 4,4′-(H-1,2,4-Triazol-1-ylmethylene)dibenzonitrile]",freely soluble,slightly,practically insoluble,,,,,
"N#Cc1ccc(C(c2ccc(C#N)cc2)n2cncn2)cc1 [Form II, 4,4′-(H-1,2,4-Triazol-1-ylmethylene)dibenzonitrile]",,,,(partially) converted into Form I,kinetic form; also recorded: generally less stable than the Form I,(partially) converted into form I,,
"N#Cc1ccc(C(c2ccc(C#N)cc2)n2cncn2)cc1 [Form I, 4,4′-(H-1,2,4-Triazol-1-ylmethylene)dibenzonitrile]",,,,,thermodynamically stable form,does not convert,does not convert into Form II,does not convert
